Reference: patent US20240025905A1, “SALTS OF DIHYDROPYRIMIDINE DERIVATIVES, COMPLEXES AND USES THEREOF IN MEDICINE” (SUNSHINE LAKE PHARMA CO., LTD., priority 2020, published 2024)

Legend:
[1] = Pharmacokinetic evaluation of experimental animals after oral administration; assay type: in vivo, Beagle dogs; conditions: dog
Method: Blood samples were taken at 0.25, 0.5, 1, 2, 4, 6, 8 and 24 hours from forelimb vein after the administration, and collected in anticoagulation tube with EDTA-K2. After liquid-liquid extraction, the blood samples were quantitatively analyzed on a triple quadrupole tandem mass spectrometer using multiple reactive ion monitoring (MRM). Pharmacokinetic parameters (AUC0-t and Cmax) were calculated using a noncompartmental method by WinNonLin 6.3 software.

[2] = test system: HBV; conditions: PCT application WO2019076310A1; cited from earlier work
[3] = Stability test (high temperature, high humidity and light tests); assay type: physicochemical
Method: High temperature test: An appropriate amount of the test product was added into a flat weighing bottle and spread into a thin layer with thickness ≤5 mm. The bottle was placed at 60° C. or 40° C. for 10 days. Samples were taken at the 5th and 10th days to check the appearance, related substances and purity.
High humidity test: An appropriate amount of the test product was added into a flat weighing bottle and spread into a thin layer with thickness 5 mm. The bottle was placed at 25° C. and a relative humidity of 90%±5% for 10 days. Samples were taken at the 5th and 10th days to check the appearance, related substances and purity. At the same time, the weight of the test product before and after the test were accurately weighed to investigate the moisture absorption and deliquescence performance of the test product. Light test: An appropriate amount of the test product was added into a flat weighing bottle and spread into a thin layer with thickness ≤5 mm. The bottle was opened and placed in a light box (with UV) at the illuminance 4500±500 lx, UV light≥0.7 w/m^2 for 10 days. Samples were taken at the 5th and 10th days to check the appearance, related substances and purity.

## COC(=O)C1=C(CN2CCN3C(=O)N(c4ccc(CCC(=O)O)cc4F)C[C@@H]3C2)NC(c2nccs2)=N[C@H]1c1ccc(F)cc1Cl [Compound having Formula (I), 3-(4-((S)-7-(((R)-6-(2-chloro-4-fluorophenyl)-5-(methoxycarbonyl)-2-(thiazol-2-yl)-3,6-dihydropyrimidin-4-yl)methyl)-3-oxohexahydroimidazo[1,5-a]pyrazine-2(3H)-yl)-3-fluorophenyl)propionic acid]
[1]; blood, beagle dogs, oral via capsules, 10 mg/kg, read-out: AUC0-t
  AUC0-t: 6340 ng·h/mL
[1]; blood, beagle dogs, oral via capsules, 10 mg/kg, read-out: Cmax
  Cmax: 3720 ng/mL
[1]; in vivo
  absorption in the body / in animals (in words): unsatisfactory
[2]
  HBV inhibitory activity (in words): good HBV inhibitory activity
[3]; 0 days
  Purity (%): 98.61%
[3]; High humidity (90% RH), 25° C., 5 days
  Purity (%): 98.66%
[3]; High humidity (90% RH), 25° C., 10 days
  Purity (%): 98.75%
[3]; High temperature (60° C.), 5 days
  Purity (%): 95.40%
[3]; High temperature (60° C.), 10 days
  Purity (%): 94.07%
[3]; Light (4500±500 lx, UV light≥0.7 w/m^2), 5 days
  Purity (%): 98.66%
[3]; Light (4500±500 lx, UV light≥0.7 w/m^2), 10 days
  Purity (%): 98.20%
[3]; high temperature (such as 60° C.)
  stability under high temperature (in words): unstable
